Results reported in patent US20230338337A1, “BIOMARKERS FOR CANCER THERAPY USING MDM2 ANTAGONISTS” (OTSUKA PHARMACEUTICAL CO., LTD., priority 2019, published 2023).

Legend:
[1] = target: MDM2-p53 interaction (in vitro translated MDM2) (Homo sapiens (Human), UniProt Q00987); experiment: MDM2-p53 interaction 96-well plate binding assay (ELISA); conditions: for MDM2 % inhibition at 0.0010: at 0.0010 μM; for IC50: read-out: MDM2 IC50
SJSA-1 = experiment: Protocol B: CellTiter-Glo cell viability assay; conditions: read-out: SJSA1 IC50 (μM) (Protocol B); Protocol B
[2] = system: SJSA-1 (p53 wild-type, MDM2 amplified osteosarcoma); experiment: Protocol A: SRB growth inhibition assay; conditions: read-out: SJSA-1 IC50 (μM) (Protocol A)

Chain of MDM2-p53 interaction (in vitro translated MDM2) (Q00987 whole entry): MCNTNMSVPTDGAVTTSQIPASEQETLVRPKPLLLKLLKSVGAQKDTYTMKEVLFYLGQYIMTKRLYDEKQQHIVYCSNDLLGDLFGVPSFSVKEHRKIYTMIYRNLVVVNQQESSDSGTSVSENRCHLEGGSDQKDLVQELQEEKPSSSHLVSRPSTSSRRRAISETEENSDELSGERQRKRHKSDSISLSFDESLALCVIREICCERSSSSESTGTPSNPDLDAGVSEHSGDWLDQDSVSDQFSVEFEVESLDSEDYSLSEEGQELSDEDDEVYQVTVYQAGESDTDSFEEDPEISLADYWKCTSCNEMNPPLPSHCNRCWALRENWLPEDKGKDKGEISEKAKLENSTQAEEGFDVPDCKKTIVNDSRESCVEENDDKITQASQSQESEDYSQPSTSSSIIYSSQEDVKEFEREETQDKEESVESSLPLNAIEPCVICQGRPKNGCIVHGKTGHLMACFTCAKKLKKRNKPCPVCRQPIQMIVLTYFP

Q: What does the source list for “(3R)-3-(4-chlorophenyl)-2-[(5-chloropyrimidin-2-yl)methyl]-4-fluoro-6-[1-hydroxy-1-(1-methylpiperidin-4-yl)ethyl]-3-{[1-(hydroxymethyl)cyclopropyl]methoxy}-2,3-dihydro-1H-isoindol-1-one [Example 554]”?
A: MDM2 % inhibition at 0.0010 [1]: 74%@0.0010; IC50 (SJSA-1): 0.07 µM; IC50 [2]: 0.21 µM

Q: “2-{[(1R)-1-(4-chlorophenyl)-7-fluoro-1-({1-[hydroxydideuteromethyl]cyclopropyl}dideuteromethoxy)-5-(2-hydroxypropan-2-yl)-3-oxo-2,3-dihydro-1H-isoindol-2-yl]methyl}pyrimidine-5-carbonitrile [Example 513]” was tested. Which IC50 [1] did it give?
A: The IC50 was 3.1 nM.

Q: What about the IC50 (SJSA-1) of the same substance?
A: The IC50 was 0.38 µM.

Q: What about the IC50 [2] of the same substance?
A: Its IC50 is 0.26 µM.

Q: Which “MDM2 % inhibition at 0.0010” value [1] does the source give for “2-{[(1R)-1-(4-chlorophenyl)-7-fluoro-5-[1-(4-fluoro-1-methylpiperidin-4-yl)-1-hydroxypropyl]-3-oxo-1-[(3S)-oxolan-3-yloxy]-2,3-dihydro-1H-isoindol-2-yl]methyl}pyrimidine-5-carbonitrile [Example 561]” here?
A: Its value is 47%@0.0010.

Q: And the IC50 (SJSA-1)?
A: Its IC50 is 0.065 µM.

Q: What about the IC50 [2] of the same substance?
A: The IC50 was 0.021 µM.

Q: With “2-{[(1R)-1-(4-chlorophenyl)-7-fluoro-5-{1-hydroxy-1-[trans-4-hydroxycyclohexyl]propyl}-1-(2-hydroxyethoxy)-3-oxo-2,3-dihydro-1H-isoindol-2-yl]methyl}pyrimidine-5-carbonitrile [Example 510]” as the substance, how does the “MDM2 % inhibition at 0.0010” value [1] read?
A: The value was 79%@0.0010.

Q: What about the IC50 (SJSA-1) of the same substance?
A: Its IC50 is 0.073 µM.

Q: What about the IC50 [2] of the same substance?
A: The IC50 was 0.084 µM.

Q: “1-({[(1R)-1-(4-chlorophenyl)-2-[(5-chloropyrimidin-2-yl)methyl]-7-fluoro-5-[1-hydroxy-1-(1-methyl-1H-imidazol-4-yl)propyl]-3-oxo-2,3-dihydro-1H-isoindol-1-yl]oxy}methyl)cyclopropane-1-carboxamide [Example 486]” was tested. Which “MDM2 % inhibition at 0.0010” value [1] did it give?
A: The value was 59%@0.0010.

Q: And the IC50 (SJSA-1)?
A: Its IC50 is 0.051 µM.

Q: What about the IC50 [2] of the same substance?
A: Its IC50 is 0.075 µM.

Q: What does the source list for “1-({[(1R)-5-[1-(1-acetylpiperidin-4-yl)-1-hydroxyethyl]-1-(4-chlorophenyl)-2-[(5-chloropyridin-2-yl)methyl]-7-fluoro-3-oxo-2,3-dihydro-1H-isoindol-1-yl]oxy}methyl)cyclopropane-1-carbonitrile [Example 301]”?
A: MDM2 % at concentration [1]: 75%@0.0010; IC50 [2]: 0.07 µM

Q: “(3R)-3-(4-chlorophenyl)-2-[(5-chloropyrimidin-2-yl)methyl]-4-fluoro-6-[1-(4-fluoro-1-methylpiperidin-4-yl)-1-hydroxypropyl]-3-[(3S)-oxolan-3-yloxy]-2,3-dihydro-1H-isoindol-1-one [Example 571]” was tested. Which “MDM2 % inhibition at 0.0010” value [1] did it give?
A: The value was 77%@0.0010.

Q: What about the IC50 (SJSA-1) of the same substance?
A: The IC50 was 0.0085 µM.

Q: And the IC50 [2]?
A: The IC50 was 0.023 µM.

Q: With “2-{[(1R)-1-(4-chlorophenyl)-7-fluoro-5-[1-(4-fluoro-1-methylpiperidin-4-yl)-1-hydroxypropyl]-1-methoxy-3-oxo-2,3-dihydro-1H-isoindol-2-yl]methyl}pyrimidine-5-carbonitrile [Example 575]” as the substance, how does the “MDM2 % inhibition at 0.0010” value [1] read?
A: The value was 38%@0.0010.

Q: What about the IC50 (SJSA-1) of the same substance?
A: The IC50 was 0.066 µM.

Q: What about the IC50 [2] of the same substance?
A: Its IC50 is 0.028 µM.

Q: What does the source list for “(3R)-3-(4-chlorophenyl)-2-[(5-chloropyrimidin-2-yl)methyl]-4-fluoro-6-[(1S)-1-hydroxy-1-[1-(oxetan-3-yl)piperidin-4-yl]propyl]-3-methoxy-2,3-dihydro-1H-isoindol-1-one [Example 551]”?
A: MDM2 % inhibition at 0.0010 [1]: 70%@0.0010; IC50 [2]: 0.031 µM

Q: With “(3R)-3-(4-chlorophenyl)-2-[(5-chloropyridin-2-yl)methyl]-4-fluoro-6-[1-(4-fluoropiperidin-4-yl)-1-hydroxypropyl]-3-[(3S)-oxolan-3-yloxy]-2,3-dihydro-1H-isoindol-1-one [Example 548]” as the substance, how does the “MDM2 % inhibition at 0.0010” value [1] read?
A: Its value is 82%@0.0010.

Q: And the IC50 (SJSA-1)?
A: Its IC50 is 0.17 µM.

Q: What about the IC50 [2] of the same substance?
A: Its IC50 is 0.14 µM.

Q: Which “MDM2 % at concentration” value [1] does the source give for “1-({[(1R)-1-(4-chlorophenyl)-2-[(5-chloropyridin-2-yl)methyl]-7-fluoro-5-{1-hydroxy-1-[1-(2-hydroxyethyl)piperidin-4-yl]ethyl}-3-oxo-2,3-dihydro-1H-isoindol-1-yl]oxy}methyl)cyclopropane-1-carbonitrile [Example 420]” here?
A: Its value is 68%@0.0010.

Q: What about the IC50 (SJSA-1) of the same substance?
A: Its IC50 is 0.87 µM.

Q: What about the IC50 [2] of the same substance?
A: The IC50 was 0.49 µM.

Q: How did the “MDM2 % inhibition at 0.0010” value [1] turn out when “(3R)-3-(4-chlorophenyl)-2-[(5-chloropyrimidin-2-yl)methyl]-4-fluoro-6-[(1S)-1-hydroxy-1-(1-methylpiperidin-4-yl)propyl]-3-{[1-(hydroxymethyl)cyclopropyl]methoxy}-2,3-dihydro-1H-isoindol-1-one [Example 556]” was run?
A: Its value is 91%@0.0010.

Q: And the IC50 (SJSA-1)?
A: The IC50 was 0.0064 µM.

Q: And the IC50 [2]?
A: Its IC50 is 0.056 µM.

Q: With “6-{[(1R)-1-(4-chlorophenyl)-7-fluoro-5-[1-(4-fluorooxan-4-yl)-1-hydroxypropyl]-1-[(2R)-2-hydroxypropoxy]-3-oxo-2,3-dihydro-1H-isoindol-2-yl]methyl}pyridine-3-carbonitrile [Example 497]” as the substance, how does the “MDM2 % inhibition at 0.0010” value [1] read?
A: Its value is 83%@0.0010.

Q: What about the IC50 [2] of the same substance?
A: The IC50 was 0.039 µM.

Q: Which results are given for “(3R)-3-(4-chlorophenyl)-2-[(5-chloropyrimidin-2-yl)methyl]-4-fluoro-3-[(3-fluorooxetan-3-yl)methoxy]-6-[1-hydroxy-1-(1-methylpiperidin-4-yl)ethyl]-2,3-dihydro-1H-isoindol-1-one [Example 558]”?
A: MDM2 % inhibition at 0.0030 ([1]; at 0.0030 μM): 53%@0.0030; IC50 (SJSA-1): 0.082 µM; IC50 [2]: 0.22 µM

Q: “(3R)-3-(4-chlorophenyl)-2-[(5-chloropyrimidin-2-yl)methyl]-4-fluoro-6-[1-(4-fluoro-1-methylpiperidin-4-yl)-1-hydroxypropyl]-3-(2-hydroxyethoxy)-2,3-dihydro-1H-isoindol-1-one [Example 565]” was tested. Which “MDM2 % inhibition at 0.0010” value [1] did it give?
A: Its value is 65%@0.0010.

Q: What about the IC50 [2] of the same substance?
A: Its IC50 is 0.045 µM.

Q: What does the source list for “6-{[(1R)-1-(4-chlorophenyl)-7-fluoro-3-oxo-1-[(3S)-oxolan-3-yloxy]-5-[2,2,2-trifluoro-1-hydroxy-1-(1-methyl-1H-pyrazol-4-yl)ethyl]-2,3-dihydro-1H-isoindol-2-yl]methyl}pyridine-3-carbonitrile [Example 428]”?
A: MDM2 % inhibition at 0.0010 [1]: 65%@0.0010; IC50 [2]: 0.11 µM

Q: How did the IC50 [1] turn out when “1-({[(1R)-1-(4-chlorophenyl)-2-[(4-chlorophenyl)methyl]-5-(2-hydroxypropan-2-yl)-3-oxo-2,3-dihydro-1H-isoindol-1-yl]oxy}methyl)cyclopropane-1-carboxylic acid [Example 5]” was run?
A: Its IC50 is 3.8 nM.

Q: And the IC50 [2]?
A: The IC50 was 0.2 µM.

Q: How did the “MDM2 % inhibition at 0.0010” value [1] turn out when “6-{[(1R)-1-(4-chlorophenyl)-7-fluoro-5-[1-hydroxy-1-(1-methyl-1H-imidazol-4-yl)propyl]-1-(2-methoxyethoxy)-3-oxo-2,3-dihydro-1H-isoindol-2-yl]methyl}pyridine-3-carbonitrile [Example 430]” was run?
A: The value was 59%@0.0010.

Q: And the IC50 [2]?
A: Its IC50 is 0.11 µM.

Q: For “2-{[(1R)-1-(4-chlorophenyl)-7-fluoro-5-[(1S)-1-hydroxy-1-(1-methylpiperidin-4-yl)propyl]-3-oxo-1-[(3S)-oxolan-3-yloxy]-2,3-dihydro-1H-isoindol-2-yl]methyl}pyrimidine-5-carbonitrile [Example 557]”, which “MDM2 % inhibition at 0.0010” value [1] is on record?
A: Its value is 81%@0.0010.

Q: And the IC50 [2]?
A: Its IC50 is 0.25 µM.

Q: “5-{[(1R)-1-(4-chlorophenyl)-7-fluoro-5-[1-hydroxy-1-(1-methyl-1H-imidazol-4-yl)propyl]-3-oxo-1-[(3S)-oxolan-3-yloxy]-2,3-dihydro-1H-isoindol-2-yl]methyl}pyridine-2-carbonitrile [Example 431]” was tested. Which “MDM2 % inhibition at 0.0010” value [1] did it give?
A: The value was 48%@0.0010.

Q: What about the IC50 [2] of the same substance?
A: Its IC50 is 0.11 µM.

Q: For “(3R)-3-(4-chlorophenyl)-2-[(5-chloropyrimidin-2-yl)methyl]-4-fluoro-6-{1-hydroxy-1-[trans-4-hydroxycyclohexyl]propyl}-3-(2-hydroxyethoxy)-2,3-dihydro-1H-isoindol-1-one [Example 517]”, which “MDM2 % inhibition at 0.0010” value [1] is on record?
A: The value was 82%@0.0010.

Q: And the IC50 [2]?
A: The IC50 was 0.019 µM.

Q: Which results are given for “(3R)-3-(4-chlorophenyl)-2-[(5-chloropyrimidin-2-yl)methyl]-4-fluoro-6-[1-(4-fluoropiperidin-4-yl)-1-hydroxypropyl]-3-[(3S)-oxolan-3-yloxy]-2,3-dihydro-1H-isoindol-1-one [Example 541]”?
A: MDM2 % inhibition at 0.00030 ([1]; at 0.00030 μM): 64%@0.0003; IC50 [2]: 0.19 µM

Q: What does the source list for “(3R)-3-(4-chlorophenyl)-2-[(5-chloropyrimidin-2-yl)methyl]-4-fluoro-6-[1-hydroxy-1-(1-methyl-1H-imidazol-4-yl)propyl]-3-[(3S)-oxolan-3-yloxy]-2,3-dihydro-1H-isoindol-1-one [Example 475]”?
A: MDM2 % inhibition at 0.0010 [1]: 71%@0.0010; IC50 [2]: 0.028 µM

Q: With “(3R)-3-(4-chlorophenyl)-2-[(4-chlorophenyl)methyl]-4-fluoro-3-{[1-(hydroxymethyl)cyclopropyl]methoxy}-6-(2-hydroxypropan-2-yl)-2,3-dihydro-1H-isoindol-1-one [Example 2]” as the substance, how does the IC50 (SJSA-1) read?
A: The IC50 was 3.4 µM.

Q: What about the IC50 [2] of the same substance?
A: Its IC50 is 1.7 µM.

Q: “(3R)-3-(4-chlorophenyl)-2-[(5-chloropyrimidin-2-yl)methyl]-4-fluoro-6-[1-(4-fluoropiperidin-4-yl)-1-hydroxypropyl]-3-methoxy-2,3-dihydro-1H-isoindol-1-one [Example 544]” was tested. Which “MDM2 % inhibition at 0.0010” value [1] did it give?
A: Its value is 86%@0.0010.

Q: What about the IC50 [2] of the same substance?
A: The IC50 was 0.032 µM.

Q: With “6-{[(1R)-1-(4-chlorophenyl)-7-fluoro-5-{1-hydroxy-1-[trans-4-hydroxycyclohexyl]propyl}-1-methoxy-3-oxo-2,3-dihydro-1H-isoindol-2-yl]methyl}pyridine-3-carbonitrile [Example 521]” as the substance, how does the “MDM2 % inhibition at 0.0010” value [1] read?
A: Its value is 77%@0.0010.

Q: And the IC50 [2]?
A: Its IC50 is 0.035 µM.

Q: For “(3R)-2-[(5-chloro-3-hydroxypyridin-2-yl)methyl]-3-(4-chlorophenyl)-4-fluoro-6-[1-hydroxy-1-(1-methyl-1H-imidazol-4-yl)propyl]-3-[cis-3-hydroxycyclobutoxy]-2,3-dihydro-1H-isoindol-1-one [Example 487]”, which “MDM2 % inhibition at 0.0010” value [1] is on record?
A: The value was 59%@0.0010.

Q: What about the IC50 [2] of the same substance?
A: Its IC50 is 0.12 µM.
